System: serum lipids and serum lipid hydroperoxide
Assay: Pharmacological test method A for anti-hyperlipidemic activity (serum lipids, 2 weeks feeding)
Assay type: in vivo, male Wistar strain rats
Settings: for AI [(TC - HDL-C)/(HDL-C)] / HDL-C in serum / LPO in serum / PL in serum / TC in serum / TG in serum: 1% in hyperlipidemic diet, 2 weeks; for AI % of diff. / AI Diff. / HDL-C % of diff. / HDL-C Diff. / LPO % of diff. / LPO Diff. / PL % of diff. / PL Diff. / TC % of diff. / TC Diff. / TG % of diff. / TG Diff.: versus control group
Protocol: Male Wistar strain rats (100±lg, each 10 rats were formed into a group) were used as test animals. Diet for the control group was prepared by thorough mixing of 20% casein, 62.5% glucose, 10% hydrogenated coconut oil, 2% agar powder, 4% vitamin-containing salt mixture, 1% cholesterol, and 0.5% cholic acid (this composition is described by Fukushima et al, in "Yakugaku Zassi", 89, No. 6, pp. 857-862 (1962)). Diet for the test groups was prepared by good mixing of 1% each of cycloartenol, 24-methylenecycloartanol, and cyclobranol with the control group's diet. Each rat was kept in a cage at a constant temperature of 23±1° C. and a constant R.H. of 55±5% for 2 weeks, during which 10 g/day of the prescribed was given. Finally the rats were fasted from food except water for 16 hours (from 4 p.m. of the 14th test day to 8 a.m. of the 15th test day), and under anesthesia with pentbarbital sodium (tradename: Nembutal), blood was taken from each rat through the descending abdominal arota. Then, TC, HDL-C, TG, PL, and LPO in the serum were measured in the manner that will be described below.
A TC kit-K (supplied by Nippon Shoji Kaisha, Ltd.) was used. The principle of this determination is as follows: The ester of cholesterol in the serum is hydrolyzed with cholesterol-ester hydrolase into free cholesterol and fatty acids. All the free cholesterol is oxidized with cholesterol oxydase to form Δ^4 -cholestenone and hydrogen peroxide. Phenol and 4-aminoantipyrin are oxidatively condensed together by the formed hydrogen peroxide and peroxydase. The produced red quinone coloring matter is measured by colorimetry for absorbance at 500 nm using a spectrophotometer, thereby determining the TC:
The color-developing liquid (3.0 ml) is well mixed with the sample serum (0.02 ml). The mixture once heated at 37° C. for 15 minutes, is measured for absorbance at 500 nm with a spectrophotometer. The found absorbance is denoted by EA. On the other hand, the color-developing liquid (3.0 ml) is well mixed with the standard solution. The mixture is treated and measured for absorbance at 500 nm in the same manner as the above. This found absorbance is denoted by ES. Both EA and ES are determined with reference to the value of the blank test conducted using the color-developing liquid (3.0 ml) alone. [formula]
An HDL-C kit-N (supplied by Nippon Shoji Kaisha, Ltd.) was used. […] (VLDL) and lo density lipoprotein (LDL) in the serum is precipitated by the action of heparin. The precipitate is separated by centrifugation. High density lipoprotein (HDL) is dissolved in the separated supernatant. Esters of cholesterol in this fraction is hydrolyzed with cholesterol-ester hydrolase into free cholesterol and fatty acids. All the free cholesterol is oxidized with cholesterol oxydase to form Δ^4 -cholestenone and hydrogen peroxide. Phenol and 4-aminoantipyrine are oxidatively condensed together by the formed hydrogen peroxide and peroxydase. The produced red quinone coloring matter is measured by colorimetry for absorbance at 500 nm using a spectrophotometer, thereby determining the HDL-C.
A PL kit-K (supplied by Nippon Shoji Kaisha, Ltd.) was used for the determination. Lecithin, sphingomyelin, and lysolecithin are decomposed by phospholipase D into choline and phosphatidic acid, N-acylsphingosyl phosphate, or lysophosphatidic acid, respectively. The resulting choline is quantitatively decomposed by choline oxydase into hydrogen peroxide and betaine. With this hydrogen peroxide, and aid of peroxydase, phenol and 4-aminoantipyrin are condensed into red quinone pigment, then the absorbance at 500 nm of which is measured with a spectrophotometer, thereby determining the PL.
Serum TG level was determined by means of a triglyceride test kit (supplied by Wako Pure Chemical Industries, Ltd.) in which acetylacetone is used for a reagent, in the following manner: Serum proteins are precipitated, when isopropyl alcohol and the sample serum are mixed. […]

| SMILES | AI [(TC - HDL-C)/(HDL-C)] | HDL-C in serum | LPO in serum | PL in serum | TC in serum | TG in serum | AI % of diff. | AI Diff. | HDL-C % of diff. | HDL-C Diff. | LPO % of diff. | LPO Diff. | PL % of diff. | PL Diff. | TC % of diff. | TC Diff. | TG % of diff. | TG Diff. |
| --- | --- | --- | --- | --- | --- | --- | --- | --- | --- | --- | --- | --- | --- | --- | --- | --- | --- | --- |
| CC(=O)Nc1ccc(C(=O)OC2CCC34CC35CCC3(C)C(C(C)CCC=C(C)C)CCC3(C)C5CCC4C2(C)C)cc1 (stereo not drawn) [Example 20, cycloartenyl-p-acetamidobenzoate] | 0.867 | 90.4 mg/dL | 2.02 nmol/mL | 143.3 mg/dL | 168.8 mg/dL | 35.2 mg/dL | -29.1% | -0.355 | +4.5% | +3.9 mg/dl | -9.7% | -0.22 nmol/mL | -17.0% | -29.3 mg/dL | -12.2% | -23.4 mg/dL | -3.0% | -1.1 mg/dL |
| CCOc1cc(C=CC(=O)OC2CCC34CC35CCC3(C)C(C(C)CCC(C)=C(C)C)CCC3(C)C5CCC4C2(C)C)ccc1O (stereo not drawn) [Example 71, cyclobranyl-3-ethoxy-4-hydroxycinnamate] | 0.523 | 106.0 mg/dL | 1.96 nmol/mL | 157.7 mg/dL | 161.4 mg/dL | 32.9 mg/dL | -47.8% | -0.479 | +10.2% | +9.8 mg/dl | -15.9% | -0.37 nmol/mL | -12.8% | -23.2 mg/dL | 16.2% | -31.2 mg/dL | -2.8% | -0.9 mg/dL |
| C=C(CCC(C)C1CCC2(C)C3CCC4C(C)(C)C(OC(=O)C=Cc5ccc(OC(C)=O)cc5)CCC45CC35CCC12C)C(C)C (stereo not drawn) [Example 83, 24-Methylenecycloartanyl ester of p-acetoxycinnamic acid] | 1.059 | 93.3 mg/dL | 2.02 nmol/mL | 162.1 mg/dL | 192.1 mg/dL | 41.1 mg/dL | -37.1% | -0.625 | +15.3% | +12.4 mg/dl | -12.7% | -0.29 nmol/mL | -9.8% | -17.6 mg/dL | -11.5% | -25.0 mg/dL | -4.0% | -1.7 mg/dL |
| C=C(CCC(C)C1CCC2(C)C3CCC4C(C)(C)C(OC(=O)c5ccc(O)c(OC)c5)CCC45CC35CCC12C)C(C)C (stereo not drawn) [Example 86, 24-Methylenecycloartanyl ester of 4-hydroxy-3-methoxybenzoic acid] | 0.802 | 91.9 mg/dL | 2.06 nmol/mL | 163.2 mg/dL | 165.6 mg/dL | 33.1 mg/dL | -20.0% | -0.200 | -4.5% | -4.3 mg/dL | -11.6% | -0.27 nmol/mL | -9.8% | -17.7 mg/dL | -14.0% | -27.0 mg/dL | -0.3% | -0.1 mg/dL |

From patent publication US4748161A, “Triterpenyl esters of organic acids and hypolipidemic agents composed of them” (Amano Pharmaceutical Co., Ltd., priority 1984, dated 1988)
